The text below walks through data of patent publication US20120121591A1 (priority 2009, published 2012).

Structures are written as SMILES.

Holding throughout (assay type): cell-based
One assay has as its target hKv1.3 (Homo sapiens, UniProt P22001). The assay is described as follows: cell-based. Particulars: Kv1.3 (IWQ) IC50 (nM, Avg).
The test system of assay [1] is IL-2 secretion from T cells in human whole blood. Particulars: read-out: WB (IL-2) IC50 (nM, Avg).
The test system of assay [2] is IFN-g secretion from T cells in human whole blood. Particulars: read-out: WB (IFNg) IC50 (nM, Avg).

Chain of hKv1.3 (P22001 whole entry): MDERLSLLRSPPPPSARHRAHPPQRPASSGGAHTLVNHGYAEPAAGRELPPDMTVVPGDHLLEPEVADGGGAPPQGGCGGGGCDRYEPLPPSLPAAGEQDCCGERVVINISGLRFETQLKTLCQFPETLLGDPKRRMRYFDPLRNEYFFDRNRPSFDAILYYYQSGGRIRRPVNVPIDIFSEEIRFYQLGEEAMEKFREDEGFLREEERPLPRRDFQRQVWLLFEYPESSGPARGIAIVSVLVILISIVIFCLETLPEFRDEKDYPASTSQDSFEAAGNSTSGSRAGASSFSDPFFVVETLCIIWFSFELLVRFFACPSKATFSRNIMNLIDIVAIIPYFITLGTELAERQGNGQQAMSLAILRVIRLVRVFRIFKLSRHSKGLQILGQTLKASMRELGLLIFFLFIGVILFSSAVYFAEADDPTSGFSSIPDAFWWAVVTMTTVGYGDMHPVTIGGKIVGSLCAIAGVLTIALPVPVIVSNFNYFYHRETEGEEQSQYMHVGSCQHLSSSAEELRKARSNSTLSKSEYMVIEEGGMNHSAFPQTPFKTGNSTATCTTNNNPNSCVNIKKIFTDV

`CCC[C@@H]1NC(=O)[C@H](CO)NC(=O)[C@H](Cc2c[nH]cn2)NC(=O)[C@H](CCCCN)NC(=O)[C@@H]2CSSC[C@@H]3NC(=O)[C@H]([C@@H](C)O)NC(=O)[C@H](CCCCN)NC(=O)[C@H](CCCNC(=N)N)NC(=O)[C@H](CSSC[C@H](NC(=O)[C@H](CCCNC(=N)N)NC(=O)[C@H](CO)NC(=O)[C@H](CCCCN)NC(=O)[C@@H]4CCCN4C(=O)[C@H]([C@@H](C)CC)NC(=O)[C@H]([C@@H](C)O)NC(=O)[C@H](CC(=O)O)NC(=O)[C@H]([C@@H](C)CC)NC(=O)[C@@H](NC(=O)[C@H](CO)NC(=O)[C@@H](N)CCCNC(=N)N)CSSC[C@@H](C(=O)NC(C)(C)C(N)=O)NC(=O)[C@H]([C@@H](C)O)NC(=O)CNC3=O)C(=O)N[C@@H]([C@@H](C)O)C(=O)N[C@@H](C)C(=O)N[C@@H](Cc3ccccc3)C(=O)N[C@@H](CCCCN)C(=O)N2)NC(=O)[C@H](Cc2ccccc2)NC(=O)[C@H](CO)NC(=O)[C@H](CC(C)C)NC(=O)[C@H](CCCNC(=N)N)NC(=O)[C@H](Cc2ccc(O)cc2)NC(=O)[C@H](CCCCN)NC1=O` [[Lys16,Nva21]ShK-Aib-amide]: the IC50 stood at 0.03 nM against hKv1.3, 0.483 nM in assay [1] and 0.722 nM in assay [2].
The corresponding values for `CCC[C@@H]1NC(=O)[C@H](CO)NC(=O)[C@H](Cc2c[nH]cn2)NC(=O)[C@H](CCCCN)NC(=O)[C@@H]2CSSC[C@@H]3NC(=O)[C@H]([C@@H](C)O)NC(=O)[C@H](CCCCN)NC(=O)[C@H](CCCNC(=N)N)NC(=O)[C@H](CSSC[C@H](NC(=O)[C@H](CCCNC(=N)N)NC(=O)[C@H](CO)NC(=O)[C@H](CCCCN)NC(=O)[C@@H]4CCCN4C(=O)[C@H]([C@@H](C)CC)NC(=O)[C@H]([C@@H](C)O)NC(=O)[C@H](CC(=O)O)NC(=O)[C@H]([C@@H](C)CC)NC(=O)[C@@H](NC(=O)[C@H](CO)NC(=O)[C@@H](N)CCCNC(=N)N)CSSC[C@@H](C(=O)N[C@@H](C)C(N)=O)NC(=O)[C@H]([C@@H](C)O)NC(=O)CNC3=O)C(=O)N[C@@H]([C@@H](C)O)C(=O)N[C@@H](C)C(=O)N[C@@H](Cc3ccccc3)C(=O)N[C@@H](CCCCN)C(=O)N2)NC(=O)[C@H](Cc2ccccc2)NC(=O)[C@H](CO)NC(=O)[C@H](CC(C)C)NC(=O)[C@H](CCCNC(=N)N)NC(=O)[C@H](Cc2ccc(O)cc2)NC(=O)[C@H](CCCCN)NC1=O` [[Lys16,Nva21]ShK-Ala-amide] are 0.08 nM, 0.431 nM and 1.46 nM.
Taken in the same sequence, the figures for `CCC[C@@H]1NC(=O)[C@H](CO)NC(=O)[C@H](Cc2c[nH]cn2)NC(=O)[C@H](CCCCN)NC(=O)[C@@H]2CSSC[C@@H]3NC(=O)[C@H]([C@@H](C)O)NC(=O)[C@H](CCCCN)NC(=O)[C@H](CCCNC(=N)N)NC(=O)[C@H](CSSC[C@H](NC(=O)[C@H](CCCNC(=N)N)NC(=O)[C@H](CO)NC(=O)[C@H](CCCCN)NC(=O)[C@@H]4CCCN4C(=O)[C@H]([C@@H](C)CC)NC(=O)[C@H]([C@@H](C)O)NC(=O)[C@H](CC(=O)O)NC(=O)[C@H]([C@@H](C)CC)NC(=O)[C@@H](NC(=O)[C@H](CO)NC(=O)[C@@H](N)CCCNC(=N)N)CSSC[C@@H](C(=O)N[C@@H](C)C(=O)O)NC(=O)[C@H]([C@@H](C)O)NC(=O)CNC3=O)C(=O)N[C@@H]([C@@H](C)O)C(=O)N[C@@H](C)C(=O)N[C@@H](Cc3ccccc3)C(=O)N[C@@H](CCCCN)C(=O)N2)NC(=O)[C@H](Cc2ccccc2)NC(=O)[C@H](CO)NC(=O)[C@H](CC(C)C)NC(=O)[C@H](CCCNC(=N)N)NC(=O)[C@H](Cc2ccc(O)cc2)NC(=O)[C@H](CCCCN)NC1=O` [[Lys16,Nva21]ShK-Ala] were 13.5 nM, 0.164 nM and 0.307 nM.
On to `CCC[C@@H]1NC(=O)[C@H](CO)NC(=O)[C@H](Cc2c[nH]cn2)NC(=O)[C@H](CCCCN)NC(=O)[C@@H]2CSSC[C@@H]3NC(=O)[C@H]([C@@H](C)O)NC(=O)[C@H](CCCCN)NC(=O)[C@H](CCCNC(=N)N)NC(=O)[C@H](CSSC[C@H](NC(=O)[C@H](CCCNC(=N)N)NC(=O)[C@H](CO)NC(=O)[C@H](CCCCN)NC(=O)[C@@H]4CCCN4C(=O)[C@H]([C@@H](C)CC)NC(=O)[C@H]([C@@H](C)O)NC(=O)[C@H](CC(=O)O)NC(=O)[C@H]([C@@H](C)CC)NC(=O)[C@@H](NC(=O)[C@H](CO)NC(=O)[C@@H](N)CCCNC(=N)N)CSSC[C@@H](C(=O)N[C@@H](CC(=O)O)C(N)=O)NC(=O)[C@H]([C@@H](C)O)NC(=O)CNC3=O)C(=O)N[C@@H]([C@@H](C)O)C(=O)N[C@@H](C)C(=O)N[C@@H](Cc3ccccc3)C(=O)N[C@@H](CCCCN)C(=O)N2)NC(=O)[C@H](Cc2ccccc2)NC(=O)[C@H](CO)NC(=O)[C@H](CC(C)C)NC(=O)[C@H](CCCNC(=N)N)NC(=O)[C@H](Cc2ccc(O)cc2)NC(=O)[C@H](CCCCN)NC1=O` [[Lys16,Nva21]ShK-Asp-amide], for which the IC50 at hKv1.3 worked out at 0.28 nM; in assay [1], 0.255 nM; in assay [2], 0.349 nM.
For the compound `CCC[C@@H]1NC(=O)[C@H](CO)NC(=O)[C@H](Cc2c[nH]cn2)NC(=O)[C@H](CCCCN)NC(=O)[C@@H]2CSSC[C@@H]3NC(=O)[C@H]([C@@H](C)O)NC(=O)[C@H](CCCCN)NC(=O)[C@H](CCCNC(=N)N)NC(=O)[C@H](CSSC[C@H](NC(=O)[C@H](CCCNC(=N)N)NC(=O)[C@H](CO)NC(=O)[C@H](CCCCN)NC(=O)[C@@H]4CCCN4C(=O)[C@H]([C@@H](C)CC)NC(=O)[C@H]([C@@H](C)O)NC(=O)[C@H](CC(=O)O)NC(=O)[C@H]([C@@H](C)CC)NC(=O)[C@@H](NC(=O)[C@H](CO)NC(=O)[C@@H](N)CCCNC(=N)N)CSSC[C@@H](C(=O)N[C@@H](CO)C(N)=O)NC(=O)[C@H]([C@@H](C)O)NC(=O)CNC3=O)C(=O)N[C@@H]([C@@H](C)O)C(=O)N[C@@H](C)C(=O)N[C@@H](Cc3ccccc3)C(=O)N[C@@H](CCCCN)C(=O)N2)NC(=O)[C@H](Cc2ccccc2)NC(=O)[C@H](CO)NC(=O)[C@H](CC(C)C)NC(=O)[C@H](CCCNC(=N)N)NC(=O)[C@H](Cc2ccc(O)cc2)NC(=O)[C@H](CCCCN)NC1=O` [[Lys16,Nva21]ShK-Ser-amide], the IC50 stood at 0.09 nM against hKv1.3, 0.467 nM in assay [1] and 0.662 nM in assay [2].
Taken in the same sequence, the figures for `CCC[C@@H]1NC(=O)[C@H](CO)NC(=O)[C@H](Cc2c[nH]cn2)NC(=O)[C@H](CCCCN)NC(=O)[C@@H]2CSSC[C@@H]3NC(=O)[C@H]([C@@H](C)O)NC(=O)[C@H](CCCCN)NC(=O)[C@H](CCCNC(=N)N)NC(=O)[C@H](CSSC[C@H](NC(=O)[C@H](CCCNC(=N)N)NC(=O)[C@H](CO)NC(=O)[C@H](CCCCN)NC(=O)[C@@H]4CCCN4C(=O)[C@H]([C@@H](C)CC)NC(=O)[C@H]([C@@H](C)O)NC(=O)[C@H](CC(=O)O)NC(=O)[C@H]([C@@H](C)CC)NC(=O)[C@@H](NC(=O)[C@H](CO)NC(=O)[C@@H](N)CCCNC(=N)N)CSSC[C@@H](C(=O)N[C@H](C(N)=O)[C@@H](C)O)NC(=O)[C@H]([C@@H](C)O)NC(=O)CNC3=O)C(=O)N[C@@H]([C@@H](C)O)C(=O)N[C@@H](C)C(=O)N[C@@H](Cc3ccccc3)C(=O)N[C@@H](CCCCN)C(=O)N2)NC(=O)[C@H](Cc2ccccc2)NC(=O)[C@H](CO)NC(=O)[C@H](CC(C)C)NC(=O)[C@H](CCCNC(=N)N)NC(=O)[C@H](Cc2ccc(O)cc2)NC(=O)[C@H](CCCCN)NC1=O` [[Lys16,Nva21]ShK-Thr-amide] were 0.03 nM, 0.385 nM and 0.702 nM.
Taken in the same sequence, the figures for `CCC[C@@H]1NC(=O)[C@H](CO)NC(=O)[C@H](Cc2c[nH]cn2)NC(=O)[C@H](CCCCN)NC(=O)[C@@H]2CSSC[C@@H]3NC(=O)[C@H]([C@@H](C)O)NC(=O)[C@H](CCCCN)NC(=O)[C@H](CCCNC(=N)N)NC(=O)[C@H](CSSC[C@H](NC(=O)[C@H](CCCNC(=N)N)NC(=O)[C@H](CO)NC(=O)[C@H](CCCCN)NC(=O)[C@@H]4CCCN4C(=O)[C@H]([C@@H](C)CC)NC(=O)[C@H]([C@@H](C)O)NC(=O)[C@H](CC(=O)O)NC(=O)[C@H]([C@@H](C)CC)NC(=O)[C@@H](NC(=O)[C@H](CO)NC(=O)[C@@H](N)CCCNC(=N)N)CSSC[C@@H](C(=O)NCCC(=O)O)NC(=O)[C@H]([C@@H](C)O)NC(=O)CNC3=O)C(=O)N[C@@H]([C@@H](C)O)C(=O)N[C@@H](C)C(=O)N[C@@H](Cc3ccccc3)C(=O)N[C@@H](CCCCN)C(=O)N2)NC(=O)[C@H](Cc2ccccc2)NC(=O)[C@H](CO)NC(=O)[C@H](CC(C)C)NC(=O)[C@H](CCCNC(=N)N)NC(=O)[C@H](Cc2ccc(O)cc2)NC(=O)[C@H](CCCCN)NC1=O` [[Lys16,Nva21]ShK-betaAla] were 12.6 nM, 0.304 nM and 0.231 nM.
The corresponding values for `CC[C@H](C)[C@@H]1NC(=O)[C@@H](NC(=O)[C@H](CO)NC(=O)[C@@H](N)CCCNC(=N)N)CSSC[C@@H](C(=O)O)NC(=O)[C@H]([C@@H](C)O)NC(=O)CNC(=O)[C@@H]2CSSC[C@@H]3NC(=O)[C@H](CCC(N)=O)NC(=O)[C@H](Cc4ccccc4)NC(=O)[C@H](C)NC(=O)[C@H]([C@@H](C)O)NC(=O)[C@H](CSSC[C@H](NC(=O)[C@H](Cc4ccccc4)NC(=O)[C@H](CO)NC(=O)[C@H](CC(C)C)NC(=O)[C@H](CCCNC(=N)N)NC(=O)[C@H](Cc4ccc(O)cc4)NC(=O)[C@H](CCCCN)NC(=O)[C@H](CCSC)NC(=O)[C@H](CO)NC(=O)[C@H](CCCCN)NC(=O)[C@H](CCCCN)NC3=O)C(=O)N[C@@H](CCCNC(=N)N)C(=O)N[C@@H](CCCCN)C(=O)N[C@@H]([C@@H](C)O)C(=O)N2)NC(=O)[C@H](CCCNC(=N)N)NC(=O)[C@H](CO)NC(=O)[C@H](CCCCN)NC(=O)[C@@H]2CCCN2C(=O)[C@H]([C@@H](C)CC)NC(=O)[C@H]([C@@H](C)O)NC(=O)[C@H](CC(=O)O)NC1=O` [[Lys19]ShK] are 0.189 nM, 0.041 nM and 0.089 nM.

The term IC50 denotes the concentration needed to halve the response being measured.
